These results are taken from patent US5401733A, “Stable and active metabolites of 1,25-dihydroxy-16-ene-cholecalciferol” (Hoffmann-La Roche Inc., priority 1993, dated 1995).

“Also recorded” adds a separate entry of the source. Where two headings read alike, the source gives them in different places.

In series [1] the test system is HL-60 cells. The series is described as follows: Differentiation of HL-60 cells (NBT reduction), 4 days. The following applies: for Percentage of NBT positive cells, Exp. 1 / Percentage of NBT positive cells, Exp. 2 / Percentage of NBT positive cells, Average / EC50: 4 days; for Percentage of NBT positive cells, Average: average of Exp. 1 and 2; for EC50: Homo sapiens, HL-60, 96 h, NBT reduction, read-out: ED50 (concentration of compound which induced differentiation of 50% of the cells). Type of series: cell-based, human. As to the method: Effect of 1,25(OH)2 -16-ene-24-oxo-D3 on the Morphological Differentiation of HL-60 Cells
Tissue culture medium used was RPMI-1640 (Gibco) supplemented with glutamine, antibiotics and 20% fetal bovine serum.
1,25(OH)2 -16-ene-D3 and 1,25(OH)2 -16-ene-24-oxo-D3 were dissolved in sufficient ethanol to yield stock solutions of 1 mM. Reduced lighting was used when working with the compounds and the stock solutions were stored in the dark at -20 C. in an argon atmosphere. The stock solutions were added to flasks, which were supplemented with sufficient ethanol to achieve the final concentration of 0.1%.
A HL-60 tumor cell line was originally derived from a patient with promyelocytic leukemia and was obtained from the American Type Culture Collection (ATCC #CCL240). The cells were maintained in liquid cultures by serial passage twice weekly in the tissue culture medium. For each experimental point, cells were grown in replicate flasks. The cells were seeded at a rate of 10^6 cells per 25 cm^2 flask and grown in the presence of the compounds for a total of 4 days. Ethanol, used as the vehicle, was kept constant in all dilutions in each experiment and had no effect on the cell differentiation at the concentrations used […]. After 4 days of incubation at 37° C., cultures were evaluated for cell differentiation.
Quantitation of differentiated cells was done by the biochemical method of nitroblue tetrazolium reduction (NBT) reduction. A 1 ml aliquot of cell suspension was removed from each flask and centrifuged for 10 minutes, and resuspended in about 200 μl of a work solution. The work solution contained 100 ng of tetradecanoyl phorbol acetate per ml of NBT and was kept in a covered vial on ice. The NBT was prepared fresh on the day of enumeration to 1 mg/ml in growth medium. The cells were incubated in a 37° C. water bath for 30 minutes. An aliquot was placed into a hemocytometer and the total number of blue-black cells per approximately 200 cells was determined. The percentage of differentiated cells was then calculated.
The results are also shown as the concentration of compound which induced differentiation of 50% of the cells (ED50).

In series [2] the test system is hydroxylase enzymes. The series is described as follows: Metabolism in perfused rat kidneys. The series is classed as in vitro ADME. The procedure:
The compounds of formulas I and II were prepared by perfusing 1,25(OH)2 -16-ene-D3 in rat kidneys, extracting the perfusate and isolating the compounds of formulas I and II.
Crystalline 1,25(OH)2 -16-ene-D3 was synthesized as described in U.S. Pat. No. 5,087,619, which is herein incorporated by reference to the extent necessary to enable one of skill in the art to make this invention. Rat kidneys were perfused with the 1,25(OH)2 -16-ene-D3 as described in Am. J. Physiol. 1982, 243 E265-271 and in Biochemistry 1987, 26, 324-331. Cold 1,25(OH)2 -16-ene-D3 (400 nmoles) was introduced into 100 mL of perfusate and the kidney perfusion was continued for 8 hours. Lipid extraction of the final kidney perfusate was performed according to the procedure described in Can. J. Biochem. Physiol. 1959, 37, 911-917. Half of the bulk lipid extract from the final perfusate of about 100 mL was then subjected directly to high pressure liquid chromatography (HPLC) performed with a Waters Model 600 equipped with a Model 990 photo diode array detector (Waters Associates, Milford, MA). HPLC analysis was performed on the lipid extract obtained from 50 mL of perfusate under the following conditions: Zorbax-SIL column (25 cm×4.6 mm); Hexane: 2-propanol (90:10), Flow rate: 2 mL/minutes. A known amount of 25(S),26(OH)2 -D3 was added to the perfusate at the time of lipid extraction to assess extraction of vitamin D metabolites in general. Fractions of each individual metabolite from the first HPLC run was pooled and subjected to a second HPLC run using the same Zorbax-SIL column eluted with methylene chloride:2-propanol […]. Each metablite obtained from the second HPLC run was chromatographed twice using the first HPLC system. At this time, the purity of each metabolite was adequate for its structure identification process. A control perfusion was performed with cold 1,25(OH)2 -D3 in a similar fashion and the lipid extract of the final perfusate was analyzed using the same HPLC systems as above.

For the compound `C=C1/C(=C\C=C2/CCC[C@]3(C)C([C@H](C)CCC(=O)C(C)(C)O)=CC[C@@H]23)C[C@@H](O)C[C@@H]1O` [1,25(OH)2-16-ene-24-oxo-D3, 1,25-dihydroxy-16-ene-24-oxo-cholecalciferol], the “differentiation of HL-60 / human promyelocytic cells (in words)” value in series [1] is recorded as “induced differentiation of human promyelocytic cells; also recorded: stimulates differentiation of HL-60 cells”; in series [1] (listed as I), “stimulate differentiation of HL-60 cells”. Besides, the “Percentage of NBT positive cells, Exp. 1” value in series [1] (0.001 μM) was determined as 8.0%; in series [1] (0.01 μM), 47.0%; in series [1] (0.1 μM), 55.0%; in series [1] (1.0 μM), 69.0%. In addition, the “Percentage of NBT positive cells, Exp. 2” value in series [1] (0.001 μM) is recorded as 24.5%; in series [1] (0.01 μM) it was 35.5%; in series [1] (0.1 μM), 60.0%; in series [1] (1.0 μM) it was 70.0%. Further, the “Percentage of NBT positive cells, Average” value in series [1] (0.001 μM) is 16.25%; in series [1] (0.01 μM), 41.25%; in series [1] (0.1 μM), 57.5%; in series [1] (1.0 μM), 69.5%. In addition, the EC50 in series [1] was 0.035 µM. For the same compound, the “potency relative to the parent compound (in words)” value in series [1] (versus 1,25(OH)2 -16-ene-D3) is listed as “greater than that of the parent compound”. Besides, the “resistance to further hydroxylation (in words)” value in series [2] (rat kidney perfusion) is reported as “resisted further hydroxylation from other hydroxylase enzymes”.
`C=C1/C(=C\C=C2/CCC[C@]3(C)C([C@H](C)CCCC(C)(C)O)=CC[C@@H]23)C[C@@H](O)C[C@@H]1O` [1,25(OH)2-16-ene-D3, 1,25-dihydroxy-16-ene-cholecalciferol]: the “Percentage of NBT positive cells, Exp. 1” value in series [1] (0.001 μM) turned out to be 12.0%; in series [1] (0.01 μM) it was 30.5%; in series [1] (0.1 μM), 48.0%; in series [1] (1.0 μM), 62.5%. The “Percentage of NBT positive cells, Exp. 2” value in series [1] (0.001 μM) stood at 18.5%; in series [1] (0.01 μM), 47.5%; in series [1] (0.1 μM) it was 61.0%; in series [1] (1.0 μM), 60.5%. Moreover, the “Percentage of NBT positive cells, Average” value in series [1] (0.001 μM) is given as 15.25%; in series [1] (0.01 μM), 39.0%; in series [1] (0.1 μM), 54.5%; in series [1] (1.0 μM), 61.5%. The EC50 in series [1] is 0.08 µM. The “metabolism (in words)” value in series [2] (400 nmoles in 100 mL perfusate, 8 hours) is on record as “metabolized mainly into two metabolites”.
